Blood glucose reduction, EC50 and Emax data for 20 compounds are collected here from patent publication US9540364B2, “Benzimidazole tetrahydrofuran derivatives” (Merck Sharp & Dohme Corp., priority 2012, dated 2017).

The subject of one test is ob/ob and db/db mice. Particulars: following 8 weeks of administration; cited from earlier work.
In test [1] the target is recombinant human AMPK complex 7 (containing α2β1γ1) (Homo sapiens (Human), UniProt P54646+Q9Y478). Nature of the test: In vitro AMPK activation assay (AMPKSAMSF). The class given is biochemical. Particulars: for EC50: inflection point reflecting 50% of the maximum activation; for Emax: recombinant human AMPK complex 7 (α2β1γ1), 10-point titration, read-out: % Maximum AMP Activation of human AMPK Complex 7. Here is the method: The recombinant human AMPK complex 1 (containing α1β1γ1) or AMPK complex 7 (containing α2β1γ1) was obtained from baculovirus expression system. Recombinant viruses were generated by cotransfection of AMPK/pBacPak9 clones with Baculogold baculovirus DNA (Pharmingen) in spodoptera frugiperda 21 cells according to the manufacturer's instructions. Each round of virus amplification was performed for 5 days in Grace's medium containing 10% serum. Virus that had been subjected to three rounds of amplification was used for all protein production procedures. To express the AMPK complex, sf21 cells were adapted to serum free medium (SF900 II, Invitrogen) by sequential dilution from serum containing stocks into SF900II medium and maintained in shaker flasks at 90 rpm at 27° C. The recombinant AMPK enzyme complex was produced by triple infection, one recombinant virus for each of the subunits, in sf21 cells under serum free conditions. Cells were infected in log phase, 1×10^6 cells/ml, at a multiplicity of infection of ˜5. Cells were harvested by centrifugation at 10,000×g for 15 minutes after 72 hours of infection with viruses. The insect cell pellet from 2 liters of culture was resuspended in 50 ml lysis buffer (20 mM Tris-HCl, 50 mM NaCl, 50 mM NaF, 30 mM Na PPi, 0.25 M sucrose, 10 mM ZnCl2, 2 mM DTT, 0.4 mg/ml digitonin) and subjected to two cycles of freeze-thaw lysis in a dry-ice ethanol bath. Insoluble material was removed by centrifugation at 10,000×g and the supernatant was fractionated with use of polyethylene glycol (PEG). The protein fraction precipitating between 2.5 and 6% PEG was used for further purification using a Blue-Sepharose step (Zhou et al, J. Clin. Invest. 108, 1167-1174, 2001).
recombinant human AMPK complex 7 (containing α2β1γ1), sequence (P54646 whole entry): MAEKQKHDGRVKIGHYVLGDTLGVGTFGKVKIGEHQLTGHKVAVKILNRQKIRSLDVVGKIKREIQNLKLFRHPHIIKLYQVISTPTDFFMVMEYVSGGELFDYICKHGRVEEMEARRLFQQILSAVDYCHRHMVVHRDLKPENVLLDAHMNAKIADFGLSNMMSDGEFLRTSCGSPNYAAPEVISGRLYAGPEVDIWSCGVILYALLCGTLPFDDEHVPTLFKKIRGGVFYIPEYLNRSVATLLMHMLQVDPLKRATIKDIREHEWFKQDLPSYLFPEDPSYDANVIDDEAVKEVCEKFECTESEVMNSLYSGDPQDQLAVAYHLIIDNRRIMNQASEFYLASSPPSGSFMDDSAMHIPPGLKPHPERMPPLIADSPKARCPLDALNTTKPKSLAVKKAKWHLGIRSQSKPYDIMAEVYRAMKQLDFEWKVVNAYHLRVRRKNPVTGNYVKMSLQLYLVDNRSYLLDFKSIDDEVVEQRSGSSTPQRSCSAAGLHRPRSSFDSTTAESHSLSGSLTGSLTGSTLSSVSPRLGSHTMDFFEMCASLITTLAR
recombinant human AMPK complex 7 (containing α2β1γ1), sequence (Q9Y478 whole entry): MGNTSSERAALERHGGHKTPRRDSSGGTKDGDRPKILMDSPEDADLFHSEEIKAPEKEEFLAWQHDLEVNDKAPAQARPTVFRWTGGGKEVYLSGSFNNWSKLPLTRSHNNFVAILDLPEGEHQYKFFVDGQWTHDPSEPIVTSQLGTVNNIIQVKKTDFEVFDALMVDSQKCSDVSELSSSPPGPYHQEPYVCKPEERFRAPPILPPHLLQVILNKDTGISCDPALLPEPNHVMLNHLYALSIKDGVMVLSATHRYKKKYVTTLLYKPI
recombinant human AMPK complex 7 (containing α2β1γ1), sequence (P54619 whole entry partner): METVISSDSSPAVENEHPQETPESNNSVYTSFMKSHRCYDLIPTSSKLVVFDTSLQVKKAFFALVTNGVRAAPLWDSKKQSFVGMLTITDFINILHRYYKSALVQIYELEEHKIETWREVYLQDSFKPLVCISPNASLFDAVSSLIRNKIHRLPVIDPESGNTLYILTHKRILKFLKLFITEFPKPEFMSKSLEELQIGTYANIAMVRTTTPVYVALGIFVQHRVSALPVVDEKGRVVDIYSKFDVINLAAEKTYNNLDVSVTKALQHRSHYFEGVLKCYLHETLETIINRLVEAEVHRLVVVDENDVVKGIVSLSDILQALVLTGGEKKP
The in vitro AMPK activation assay is performed in a volume of 30 μl in a 384-well plate. Enzyme reactions were assembled in the microtiter plate by adding 15 μl of 2× enzyme in assay buffer (20 mM HEPES, pH 7.3, 5 mM MgCl2, 3 mM DTT, 0.01% Brij 35 and CamK Kinase, to activate AMPK) to wells which contained either DMSO or compound. The reaction was initiated with the addition of 15 μl 2× substrate mixture containing 200 μM ATP, and 3.0 μM fluorescently labeled SAMS (5-FAM-HMRSAMSGLHLVKRR-COOH) in assay buffer. After 45-minute incubation at 25° C., the reaction was stopped by the addition of 70 μl stop buffer (100 mM HEPES, pH 7.3, 40 mM EDTA, 0.015% Brij 35). Phosphorylated 5-FAM SAMS product is assessed using a Caliper EZ Reader LabChip microfluidics reader. Product conversion is determined by calculating the peak heights of the substrate and product and reporting the product/(product+substrate) peak ratio. The 10-point titration data were expressed as % maximum AMP activation. The results were plotted using 4 parameter fit and the inflection point reflecting 50% of the maximum activation was reported as the EC50.

`NC(=O)c1ncn([C@@H]2O[C@H](CO)[C@@H](O)[C@H]2O)c1N` [AICAR]: in the test on ob/ob and db/db mice, the blood glucose reduction was 35%.
As usually defined, the EC50 is the concentration giving half of the maximal effect. As to `OC[C@H]1OC[C@@H](Oc2nc3cc(-c4ccc(-c5ccccc5)cc4)c(Cl)cc3[nH]2)[C@@H]1O` [Example 1, (2R,3R,4R)-4-[[6-chloro-5-(4-phenylphenyl)-1H-benzimidazol-2-yl]oxy]-2-(hydroxymethyl)tetrahydrofuran-3-ol], in test [1], the EC50 was determined as 216 nM and the Emax amounted to 301%.
In the case of `OC[C@H]1OC[C@@H](Oc2nc3cc(-c4ccc(-c5cccc(F)c5)cc4)c(Cl)cc3[nH]2)[C@@H]1O` [Example 2], in test [1], the EC50 worked out at 4290 nM and the Emax stood at 137%.
The like results for `CNC(=O)c1ccc(-c2ccc(-c3cc4nc(O[C@@H]5CO[C@H](CO)[C@H]5O)[nH]c4cc3Cl)cc2)cc1` [Example 3] were, in that order, 8 nM and 262%.
The like results for `Cc1cc(-c2ccc(-c3ccc(-c4cc5nc(O[C@@H]6CO[C@H](CO)[C@H]6O)[nH]c5cc4Cl)cc3)cc2)[nH]n1` [Example 4] were, in that order, 104 nM and 172%.
In the case of `N#Cc1ccc(-c2ccc(-c3cc4nc(O[C@@H]5CO[C@H](CO)[C@H]5O)[nH]c4cc3Cl)cc2)c(F)c1` [Example 5], in test [1], the EC50 worked out at 209 nM and the Emax turned out to be 288%.
On to `OC[C@H]1OC[C@@H](Oc2nc3cc(-c4ccc(-c5ccc(-n6ccnn6)cc5)cc4)c(Cl)cc3[nH]2)[C@@H]1O` [Example 7], for which, in test [1], the EC50 was found to be 8 nM and the Emax came out at 233%.
The like results for `CC(CO)(CO)c1ccc(-c2ccc(-c3cc4nc(O[C@@H]5CO[C@H](CO)[C@H]5O)[nH]c4cc3Cl)cc2)cc1` [Example 8] were, in that order, 5 nM and 278%.
For `OC[C@H]1OC[C@@H](Oc2nc3cc(-c4ccc(-c5ccc(-n6cccn6)cc5)cc4)c(Cl)cc3[nH]2)[C@@H]1O` [Example 9], in test [1], the EC50 is 33 nM and the Emax came out at 269%.
For `OC[C@H]1OC[C@@H](Oc2nc3cc(-c4ccc(-c5ccc(C6CNCCO6)cc5)cc4)c(Cl)cc3[nH]2)[C@@H]1O` (stereo partly drawn) [Example 10], in test [1], the EC50 was determined as 34 nM and the Emax turned out to be 210%.
Turning to `OC[C@H]1OC[C@@H](Oc2nc3cc(-c4ccc(-c5ccc(-c6nccs6)cc5)cc4)c(Cl)cc3[nH]2)[C@@H]1O` [Example 12], in test [1], the EC50 stood at 76 nM and the Emax stood at 170%.
The like results for `OC[C@H]1OC[C@@H](Oc2nc3c(F)c(-c4ccc(-c5ccc(-n6ccnn6)cc5)cc4)c(F)cc3[nH]2)[C@@H]1O` [Example 13] were, in that order, 5 nM and 283%.
The like results for `CNC(=O)c1ccc(-c2ccc(-c3c(F)cc4[nH]c(O[C@@H]5CO[C@H](CO)[C@H]5O)nc4c3F)cc2)cc1` [Example 14] were, in that order, 4 nM and 340%.
As for `OC[C@H]1OC[C@@H](Oc2nc3c(F)c(-c4ccc(-c5ccc(-c6nccc(O)n6)cc5)cc4)c(F)cc3[nH]2)[C@@H]1O` [Example 15], in test [1], the EC50 came to 3 nM and the Emax was 299%.
The matching figures for `CC(CO)(CO)c1ccc(-c2ccc(-c3c(F)cc4[nH]c(O[C@@H]5CO[C@H](CO)[C@H]5O)nc4c3F)cc2)cc1` [Example 16]: 6 nM and 313%.
`OC[C@H]1OC[C@@H](Oc2nc3c(F)c(-c4ccc(-c5ccc(-n6cccn6)cc5)cc4)c(F)cc3[nH]2)[C@@H]1O` [Example 17]: in test [1], the EC50 amounted to 20 nM and the Emax is 313%.
As for `OC[C@H]1OC[C@@H](Oc2nc3c(F)c(-c4ccc(-c5ccc(C6CNCCO6)cc5)cc4)c(F)cc3[nH]2)[C@@H]1O` (stereo partly drawn) [Example 18], in test [1], the EC50 was 34 nM and the Emax stood at 316%.
Turning to `OC[C@H]1OC[C@@H](Oc2nc3c(F)c(-c4ccc(-c5ccc(-c6nccs6)cc5)cc4)c(F)cc3[nH]2)[C@@H]1O` [Example 19], in test [1], the EC50 is 67 nM and the Emax was 251%.
Regarding `Cc1cc(-c2ccc(-c3ccc(-c4c(F)cc5[nH]c(O[C@@H]6CO[C@H](CO)[C@H]6O)nc5c4F)cc3)cc2)[nH]n1` [Example 20], in test [1], the EC50 was determined as 50 nM and the Emax came to 246%.
For the compound `N#Cc1ccc(-c2ccc(-c3c(F)cc4[nH]c(O[C@@H]5CO[C@H](CO)[C@H]5O)nc4c3F)cc2)c(F)c1` [Example 21], in test [1], the EC50 was found to be 38 nM and the Emax is 230%.
